Converted amounts (≈) assume the structure as drawn. “And” between values parts separate entries of the source, which are not always exact repeats. Equal entries are not always repeated.
Experiments:
[1] = system: NO generated by LPS-induced macrophages; experiment: Nitric oxide assay (Griess) in LPS-induced macrophages; assay type: cell-based, murine; details: Mus musculus, Macrophage, 18 h, LPS 1 µg/mL, read-out: % NO Production (Mean ± SEM)
Procedure, shortened: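 Murine macrophages (1 × 10^6/well) pre-treated 2 h with compound at 100, 50, 10 or 1 µM, then LPS 1 µg/mL for 18 h. Nitrite in medium measured with Griess reagent at 540 nm against a NaNO2 standard curve; piroxicam as positive control, t-test for significance.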

[2] = MTT cytotoxicity against raw macrophages; assay type: cell-based, albino rats; details: rat; for viability at 24 h, 1 µM / viability at 24 h, 10 µM / viability at 24 h, 50 µM / viability at 24 h, 100 µM: peritoneal macrophages (raw macrophages), raw macrophages, MTT, read-out: % Cell Viability; for IC50 at 24 h: primary peritoneal macrophages, mean ± SEM, n = 3
Procedure, shortened: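 Peritoneal macrophages from albino rats were treated for 24 h at 37 °C, 5% CO2 with test compounds at 100, 50, 10 and 1 µM or vehicle, from DMSO stocks. MTT was then added for 2 h, formazan dissolved in DMSO and absorbance read at 570 nm. % viability = blank-corrected sample over blank-corrected control ×100.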

[3] = DPPH free radical scavenging assay; details: mean ± SEM, n = 3; for IC50 (DPPH radical scavenging): concentration to scavenge 50% of the DPPH radicals
Procedure, shortened: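 Compounds at 200, 66.6, 22.2 and 7.4 µg/mL were mixed with DPPH radical, with DMSO as the negative control. Absorbance was read at 630 nm, and % scavenging was calculated as (1 − Abs/Abc) × 100 against the control.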

[4] = system: brine shrimp nauplii; experiment: Brine shrimp lethality bioassay; assay type: in vivo; details: 24 h, n = 3
Procedure, shortened: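 Ten hatched nauplii per well in artificial seawater were exposed to test compounds at 400, 200, 100 and 50 µg/mL under a lamp. Survivors counted after 24 h; percentage mortality calculated; triplicate.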

[5] = Total reducing power (TRP) assay
Procedure: A TRP assay was carried out to evaluate the reducing potential of synthetic compounds. The method implicates reductones. These reductones are species with antioxidant potential that is believed to be due to their proton-donating capacity. […] The maximum value of reducing power was 104.7 ± 1.9 µg/AAE for SF5, followed by 103.18 ± 2.4 µg/AAE for SF7 and 84.57 ± 1.9 µg/AAE for SF12 (Figure 3 and Figure 4 (standard curve)).
The assay is based on the reduction of Fe^+3 to Fe^+2. The method described by Khan et al. was used with slight modifications. One hundred microliters of test samples (4 mg/mL DMSO) were taken in an Eppendrof tube and 200 μL of phosphate buffer (0.2 mol/L, pH 6.6) and 250 µL of 1% potassium ferricyanide (K3Fe CN)6) were added. This was allowed to incubate at 50 °C for 20 min. Later on, 200 μL of 10% trichloroacetic acid (TCA) was added to the mixture. The mixture was centrifuged at 3000 rpm at room temperature for 10 min. After centrifugation, 150 µL of supernatant were transferred to microplate with FeCl3 (50 μL, 0.1%) and the absorbance was taken at 630 nm. The results were calculated as µg AAE/mg.

IC50 (DPPH radical scavenging) [3]	Structure (SMILES)	activity at 1 µM [1]	activity at 10 µM [1]	activity at 50 µM [1]	activity at 100 µM [1]	viability at 24 h, 1 µM ([2]; albino)	viability at 24 h, 10 µM ([2]; albino)	viability at 24 h, 50 µM ([2]; albino)	viability at 24 h, 100 µM ([2]; albino)	IC50 at 24 h ([2]; albino)	% DPPH Scavenging Activity ([3]; 7.4 µg/mL)	% DPPH Scavenging Activity ([3]; 22.22 µg/mL)	% DPPH Scavenging Activity ([3]; 66.66 µg/mL)	% DPPH Scavenging Activity ([3]; 200 µg/mL)	LD50 ± SEM (brine shrimp lethality) [4]	Total reducing power (TRP) [5]	IC50 at 24 h [2]
56.63 ± 0.32 µg/mL (≈ 231 µM)	CN1CCN(CN2CCCc3ccccc32)CC1 [SF5]	51.43 ± 0.48%	43 ± 0.45%	28.6 ± 0.44%	21.9 ± 0.38%	98 ± 1.01%	74 ± 0.42%	67 ± 0.84%	60 ± 1.2%	6.181 ± 0.05 µM	7.76 ± 0.23%	17.39 ± 0.16%	28.77 ± 0.14%	45.24 ± 0.28%	94 ± 1.06 µg/mL	104.7 ± 1.9 µg/AAE	
44.22 ± 0.25 µg/mL (≈ 192 µM)	c1ccc2c(c1)CCCN2CN1CCCCC1 [SF1, 1-(Piperidine-1-ylmethyl) 1,2,3,4-tetrahahydroquinoline]	27.8 ± 0.45%	26 ± 0.43%	23.7 ± 0.41%	17.3 ± 0.35%	58 ± 0.76%	48 ± 1.34%	47 ± 0.84%	44.7 ± 0.5%	6.232 ± 0.01 µM	11.91 ± 0.32%	27.76 ± 0.11%	50.08 ± 0.18%	62.45 ± 0.12%	120 ± 2.3 µg/mL and 120.8 ± 2.3 µg/mL	33.22 ± 1.5 µg/AAE	
44.4 ± 0.29 µg/mL (≈ 141 µM)	c1ccc(N(CN2CCCc3ccccc32)c2ccccc2)cc1 [SF7, N-((3,4-dihydroquinolin-1(2H)-yl)methyl)-N-phenylaniline]	69.71 ± 0.65%	63.12 ± 0.61%	21.4 ± 0.48%	17.5 ± 0.45%	96 ± 0.89%	95 ± 0.96%	84 ± 0.77%	58 ± 0.83%	18.64 ± 0.13 µM	9.28 ± 0.13%	26.76 ± 0.17%	50.48 ± 0.054%	64.48 ± 0.18%	100.8 ± 1.14 µg/mL	103.18 ± 2.4 µg/AAE	18.6 ± 0.13 µM

From paper PMC7321408, “One-Pot Multicomponent Synthesis and Bioevaluation of Tetrahydroquinoline Derivatives as Potential Antioxidants, α-Amylase Enzyme Inhibitors, Anti-Cancerous and Anti-Inflammatory Agents” (Molecules, 2020)
